In brackets after ≈: the same amount, converted by molar mass. Where two headings read alike, the source gives them in different places.
Legend:
S. aureus DSM2569 = test: MIC, standard microdilution assay, growing S. aureus; format: cell-based, Staphylococcus aureus; conditions: Staphylococcus aureus
In short: (§1)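 Each strain was exposed to serially diluted compound in broth, in triplicate. The media were TSB for Shigella; CA-MHB at pH 7.4 (HEPES 40 mM) for S. aureus, P. aeruginosa and UPEC; and, for UPEC only, low-pH LPM (pH 5.5, 30 mM MES).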

[1] = tested on: intracellular S. flexneri 5a M90T in TC7 cells; test: microbe, parasite or virus in culture; format: cell-based, Shigella flexneri; conditions: for IC50: Shigella flexneri, TC7, 14 h
Source text: Nonproliferating bacterial pathogens frequently inhabit intracellular environments, but establishing relevant infection models for high-throughput testing is challenging. Therefore, we firstly tested ability of the hit compounds to cross the eukaryotic cytoplasmic membrane barrier and inhibit growth of S. flexneri within the cytoplasm of the TC7 human colon adenocarcinoma cell line[59]. To this end, we developed a new, fluorescence-based method that enables real-time monitoring of growth of intracellular Shigella. We used S. flexneri 5a M90T strain producing the AfaE adhesin that enhances bacterial adhesion to epithelial cells and allows synchronization of invasion. The strain was further modified to constitutively express super-folder GFP (sfGFP), which enables monitoring bacterial growth by fluorescence measurement. The epithelial cells were grown to confluence and infected with bacteria at an MOI (multiplicity of infection) of 50. […] Following bacterial adhesion and invasion, the cells were incubated with varying concentrations of the hit compounds and intracellular bacterial growth was tracked by measuring green fluorescence.
The cells were split using trypsin, seeded in 96-well plates for infection, and grown to confluence, corresponding to approximately 40,000 cells per well.
A single colony of S. flexneri was inoculated into TSB supplemented with 50 μg/ml spectinomycin and incubated overnight at 37°C with agitation. The overnight culture was diluted 1:200 in fresh TSB, and the bacteria were grown at 37 °C until the OD600 reached 0.3–0.4, corresponding to approximately 2 × 10^7 CFU/ml. Bacteria were pelleted by centrifugation, washed twice with sterile PBS, and resuspended in infection solution (serum-free DMEM supplemented with 20 mM HEPES, pH 7.4). Just prior to infection, the medium was withdrawn, and the cells were washed twice with sterile PBS. The bacterial inoculum (MOI 50, 2 × 10^7 CFU/ml) was added to all wells except the no-infection control. The plates were incubated at room temperature for 15 min to allow bacterial adhesion, followed by a 1 h incubation at 37 °C with 5% CO2 to facilitate bacterial invasion.
Twofold serial dilutions of the drugs were prepared in infection solution containing 50 μg/ml gentamicin in a 96-well plate. After the invasion period, the bacterial inoculum was removed, and the serial dilutions of the drugs were added to the wells, except for the no-drug control. […] […] The experiments were performed in triplicates on separate days.
Statistical significance of the drug effects was assessed using a one-way ANOVA followed by Dunnett’s test, comparing each treatment to the drug-free control. Statistical significance of the differences in chemical characteristics between the hit compounds and the Prestwick library was assessed using a Mann–Whitney test. Statistical significance was set at P ≤ 0.05. A five-parameter logistic equation was used for asymmetric sigmoidal curve fitting and for EC50 and IC50 determination. The Venn diagram in Fig. 1F was prepared using BioVenn web application. Characteristics of the chemical and physical properties of Prestwick library compounds were obtained from Supplementary Table S1 from reference. Characteristics of the hit compounds not included in the Prestwick library were retrieved from the PubChem database.

E. coli CFT073 (UPEC) = test: MIC, standard microdilution assay, growing UPEC; format: cell-based, Escherichia coli; conditions: for MIC: Escherichia coli
In short: as §1

[2] = DSM2569, S. aureus, CA-MHB pH 7.4, read-out: MIC (μM) CA-MHB
[3] = TC7 cells infected with GFP-expressing S. flexneri, 14 h treatment
[4] = E. coli, pH 7.4, CA-MHB, read-out: MIC (μM) CA-MHB
[5] = E. coli, LPM pH 5.5, read-out: MIC
[6] = E. coli, pH 7.4, 1:4 diluted CA-MHB, read-out: MIC (μM) 1:4 CA-MHB

Structure (SMILES)	MIC (S. aureus DSM2569; [2]) [µM]	IC50 [1] [nM]	Fluorescence intensity (RFU), Mean, 0.25 x MIC [1, 3] [RFU]	Fluorescence intensity (RFU), Mean, 0.5 x MIC [1, 3] [RFU]	Fluorescence intensity (RFU), Mean, 2 x MIC [1, 3] [RFU]	Fluorescence intensity (RFU), Mean, 4 x MIC [1, 3] [RFU]	Fluorescence intensity (RFU), Mean, 8 x MIC [1, 3] [RFU]	Fluorescence intensity (RFU), Mean, 16 x MIC [1, 3] [RFU]	Fluorescence intensity (RFU), Mean, 32 x MIC [1, 3] [RFU]	Fluorescence intensity (RFU), Mean, MIC [1, 3] [RFU]	MIC (E. coli CFT073 (UPEC); [4]) [µM]	MIC (E. coli CFT073 (UPEC); [5]) [µM]	Fluorescence intensity (RFU), Mean, 0.125 x MIC [1, 3] [RFU]	MIC (S. aureus DSM2569; DSM2569, pH 7.4, read-out: MIC (μM) CA-MHB) [µM]	MIC (E. coli CFT073 (UPEC); pH 5.5) [µM]	MIC (E. coli CFT073 (UPEC); pH 7.4, read-out: MIC (μM) CA-MHB) [µM]	Fluorescence intensity (RFU), Mean, 0.0625 x MIC ([1]; TC7 cells infected with GFP-expressing S. flexneri, 14 h treatment, 0.0625 x MIC) [RFU]	MIC (μM) CA-MHB +PAβN (E. coli CFT073 (UPEC); E. coli, pH 7.4, CA-MHB with 10 μg/ml efflux pump inhibitor PaβN) [µM]	MIC (E. coli CFT073 (UPEC); [6]) [µM]
CN1C[C@@H]2C[C@H]1CN2c1cc2c(cc1F)c(=O)c(C(=O)O)cn2C1CC1 [Danofloxacin]	0.5 (≈ 0.179 µg/mL)	52	9638.21	8906.42	3750.58	3092.69	2319.78	1798.5	1629.06	4339.36	0.125 (≈ 0.0447 µg/mL)	–	–	–	–	–	–	–	–
CN1CCN(c2cc3c(cc2F)c(=O)c(C(=O)O)cn3-c2ccc(F)cc2)CC1 [Difloxacin]	1 (≈ 0.399 µg/mL)	183	8915.25	8126.42	3233.81	2824.97	2319.67	1827.36	1634.92	3866.17	0.25 (≈ 0.0998 µg/mL)	0.0625 (≈ 0.025 µg/mL)	–	–	–	–	–	–	–
CCN1CCN(c2cc3c(cc2F)c(=O)c(C(=O)O)cn3C2CC2)CC1 [Enrofloxacin]	0.5 (≈ 0.18 µg/mL)	36	7346.62	6043.88	2710.72	1953.94	1617.72	1488.39	1501.89	3054.19	0.1 (≈ 0.0359 µg/mL)	0.125 (≈ 0.0449 µg/mL)	8510.46	–	–	–	–	–	–
C[C@H]1NCc2cc(-c3ccc4c(=O)c(C(=O)O)cn(C5CC5)c4c3OC(F)F)ccc21 [Garenoxacin]	0.125 (≈ 0.0533 µg/mL)	31	6643.04	5273	3944.5	3336.42	2806.31	2331.56	1840.28	3888.86	0.125 (≈ 0.0533 µg/mL)	0.125 (≈ 0.0533 µg/mL)	–	–	–	–	–	–	–
CO[C@@]12[C@H](COC(N)=O)C3=C(C(=O)C(C)=C(N)C3=O)N1C[C@@H]1N[C@@H]12 [Mitomycin C]	–	451	–	–	2991.58	2579.31	2274.5	1986.92	1617.58	3708.94	–	–	–	0.25 (≈ 0.0836 µg/mL)	0.5 (≈ 0.167 µg/mL)	2 (≈ 0.669 µg/mL)	–	–	–
CO[C@H]1/C=C/O[C@@]2(C)Oc3c(C)c(O)c4c(O)c(c(/C=N/N5CCN(C)CC5)c(O)c4c3C2=O)NC(=O)/C(C)=C\C=C\[C@H](C)[C@H](O)[C@@H](C)[C@@H](O)[C@@H](C)[C@H](OC(C)=O)[C@@H]1C [Rifampicin]	0.0125 (≈ 0.0103 µg/mL)	3230	10619.3	4149.04	1695.78	1392.42	1299.69	1165.58	1042.53	2886.31	8 (≈ 6.58 µg/mL)	0.5 (≈ 0.411 µg/mL)	10528.2	–	–	–	10229.8	1 (≈ 0.823 µg/mL)	5 (≈ 4.11 µg/mL)
CC[C@H]1OC(=O)C[C@@H](O)[C@H](C)[C@@H](O[C@@H]2O[C@H](C)C[C@H](N(C)C)[C@H]2O)[C@@H](CC=O)C[C@@H](C)C(=O)/C=C/[C@]2(C)O[C@H]2[C@@H]1C [Rosamicin]	2 (≈ 1.16 µg/mL)	23600	9383.2	8207.86	3601.92	1830.75	–	–	–	6316.33	25 (≈ 14.5 µg/mL)	–	–	–	–	–	–	–	6.25 (≈ 3.64 µg/mL)
CC1Sc2c(C(=O)O)c(=O)c3cc(F)c(N4CCNCC4)cc3n21 (stereo not drawn) [Ulifloxacin]	1 (≈ 0.349 µg/mL)	101	–	–	6924.86	4362.58	3208.03	2720.44	2065.19	8271.31	0.025 (≈ 0.00873 µg/mL)	0.125 (≈ 0.0437 µg/mL)	–	–	–	–	–	–	–
